Experimental data as given in patent publication US20260356860A1, “2-SUBSTITUTED 3,4A,5,7,8,8A-HEXAHYDRO-4H-THIOPYRANO[4,3-DJPYRIMIDIN-4-ONES FOR WOUND TREATMENT” (priority 2022, published 2026).

How the values were obtained:
[1] = test system: HEK293 SuperTOPFlash reporter cells, Wnt promoter; test: HEK CELL Wnt Assay (luciferase reporter); assay type: cell-based; details: serial dilutions, with or without 50 ng/mL Wnt3a; 18 h
Summary of the method: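 Reporter cells were seeded 24 h before dosing with serial dilutions ([…] to 1 nM), with or without 50 ng/mL Wnt3a, and incubated 18 h. Untreated cells served as negative control, with luciferase as read-out.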

[2] = test system: E. coli (derived from ATCC ® 25922 ™); test: Bacteriostasis, log reduction; assay type: cell-based; details: E. coli ATCC 25922
Description: (§1) In order to assess the log reduction capabilities of compounds of Formula (1), testing was performed on organisms that are found in acute and chronic wounds. Triplicate tubes were prepared for each bacteria using 50 μL of inoculum (about 1×10^6 CFU/mL) which was added to 450 μL of compound solution (compound of Formula (I)) (or 100 μL of inoculum in 900 μL of compound solution), resulting in a final inoculum of about 1×10^5 CFU/mL, as shown in Table 4.
(§2) Tubes were mixed with a vortex and then incubated in a shaking incubator at 175 RPM and 35° C. to 37° C.
(§3) Positive control in Tables 5a and 5b was 1 mL of 0.89% saline with 1 mL of the 1×10^6 CFU/mL of the organism.
(§4) For Compounds 1, 7, 8, 10, and 18 in Tables 6, 7-A, 7-B, 8, 9, 10-A, 10-B, and 11: The compound solutions were prepared with compound (30 mg), polysorbate 20 (1.6 mL), butylene glycol (1.6 mL), phosphatidyl choline (0.66 g), ethanol (1.6 mL), hydroxypropyl cellulose (0.26 g), and ultra pure water (24.9 mL).
(§5) XAV939 Control in Table X1 was XAV939 (30 mg), polysorbate 20 (1.6 mL), butylene glycol (1.6 mL), phosphatidyl choline (0.66 g), ethanol (1.6 mL), ultra pure water (24.9 mL), and hydroxypropyl cellulose (0.26 g).
(§6) GO-HA Control in Table X2 was GO-HA (30 mg), polysorbate 20 (1.6 mL), butylene glycol (1.6 mL), phosphatidyl choline (0.66 g), ethanol (1.6 mL), ultra pure water (24.9 mL), and hydroxypropyl cellulose (0.26 g).
(§7) For Compound 18+GO-HA in Tables 6 and X4: compound 18 (45 mg), GO-HA (45 mg), polysorbate 20 (2 mL), butylene glycol (2 mL), phosphotidyl choline (0.5 g), ethanol (2 mL), hydroxypropyl cellulose (0.40 g), and ultra pure water (40 mL).
(§8) For XAV939+GO-HA in Tables 6 and X3-A, and X3-B: XAV939 (45 mg), GO-HA (45 mg), butylene glycol (2 mL), polysorbate 20 (2 mL), phosphotidyl choline (0.5 g), ethanol (2 mL), hydroxypropyl cellulose (0.40 g), and ultra pure water (40 mL).
(§9) Testing was performed at two time points: 18 to 24 hours, and […].

[3] = test system: E. coli (derived from ATCC ® 8739 ™); test: Bacteriostasis, log reduction; assay type: cell-based; details: E. coli ATCC 8739
Description: as §1, §2, §3, §4, §5, §6, §7, §8, §9

[4] = test system: E. faecalis (derived from ATCC ® 19433 ™); test: Bacteriostasis, log reduction; assay type: cell-based; details: E. faecalis ATCC 19433
Description: as §1, §2, §3, §4, §5, §6, §7, §8, §9

[5] = test system: P. aeruginosa (derived from ATCC ® 15442 ™); test: Bacteriostasis, log reduction; assay type: cell-based; details: P. aeruginosa ATCC 15442
Description: as §1, §2, §3, §4, §5, §6, §7, §8, §9

[6] = test system: S. aureus (MRSA) (derived from ATCC ® 33593 ™); test: Bacteriostasis, log reduction; assay type: cell-based; details: S. aureus (MRSA) ATCC 33593
Description: as §1, §2, §3, §4, §5, §6, §7, §8, §9

[7] = test system: S. aureus (derived from ATCC ® 6538 ™); test: Bacteriostasis, log reduction; assay type: cell-based; details: S. aureus ATCC 6538
Description: as §1, §2, §3, §4, §5, §6, §7, §8, §9

[8] = test system: S. epidermidis (derived from ATCC ® 14990 ™); test: Bacteriostasis, log reduction; assay type: cell-based; details: S. epidermidis ATCC 14990
Description: as §1, §2, §3, §4, §5, §6, §7, §8, §9

[9] = test system: TK 1; details: cell-free assay; read-out: IC50, TK 1 inhibition; cited from earlier work
[10] = test system: TK2; details: cell-free assay; read-out: IC50, TK2 inhibition; cited from earlier work
[11] = test system: CRE, F-κB, or TGF-β; details: cited from earlier work
[12] = cited from earlier work
[13] = test system: ear punch wound; details: cited from earlier work
[14] = test system: wound; details: in a GO-HA matrix; cited from earlier work

In the case of Oc1nc(-c2ccc(C(F)(F)F)cc2)nc2c1CSCC2 [XAV939, reference compound], the IC50 [1] is reported as 50 nM, the Average result ([2]; 24 h) is reported as 2.8 × 10^4 and the “Log Reduction” value ([2]; 24 h) is reported as 1.0. For the same molecule, the “Log Value” ([2]; 24 h) was 4.4, the Average result ([2]; 72 h) was <200 and the “Log Reduction” value ([2]; 72 h) was >3.1. For the same molecule, the “Log Value” ([2]; 72 h) was <2.3, the Average result ([3]; 24 h) was 2.7 × 10^3 and the “Log Reduction” value ([3]; 24 h) was 1.9. For the same molecule, the “Log Value” ([3]; 24 h) was 3.4, the Average result ([3]; 72 h) was <200 and the “Log Reduction” value ([3]; 72 h) was >3.0. For the same molecule, the “Log Value” ([3]; 72 h) was <2.3, the Average result ([4]; 24 h) was 2.6 × 10^5 and the “Log Reduction” value ([4]; 24 h) was “No”. For the same molecule, the “Log Value” ([4]; 24 h) was 5.4, the Average result ([4]; 72 h) was 1.7 × 10^5 and the “Log Reduction” value ([4]; 72 h) was “No”. For the same molecule, the “Log Value” ([4]; 72 h) was 5.1, the Average result ([5]; 24 h) was <200 and the “Log Reduction” value ([5]; 24 h) was >3.1. The “Log Value” ([5]; 24 h) was <2.3, the Average result ([5]; 72 h) was <200 and the “Log Reduction” value ([5]; 72 h) was >3.1. For the same molecule, the “Log Value” ([5]; 72 h) was <2.3, the Average result ([6]; 24 h) was 8.7 × 10^4 and the “Log Reduction” value ([6]; 24 h) was “No”. For the same molecule, the “Log Value” ([6]; 24 h) was 4.9, the Average result ([6]; 72 h) was <6.8 × 10^3 and the “Log Reduction” value ([6]; 72 h) was >0.8. For the same molecule, the “Log Value” ([6]; 72 h) was <3.8, the Average result ([7]; 24 h) was 2.5 × 10^3 and the “Log Reduction” value ([7]; 24 h) was 1.9. For the same molecule, the “Log Value” ([7]; 24 h) was 3.4, the Average result ([7]; 72 h) was 1.7 × 10^5 and the “Log Reduction” value ([7]; 72 h) was 0.1. For the same molecule, the “Log Value” ([7]; 72 h) was 5.2, the Average result ([8]; 24 h) was 5.5 × 10^4 and the “Log Reduction” value ([8]; 24 h) was 0.1. For the same molecule, the “Log Value” ([8]; 24 h) was 4.7, the Average result ([8]; 72 h) was <200 and the “Log Reduction” value ([8]; 72 h) was >2.5. For the same molecule, the “Log Value” ([8]; 72 h) was <2.3, the IC50 [9] was 11 nM and the IC50 [10] was 4 nM. For the same molecule, the “effect on CRE, F-κB, or TGF-β” value [11] was “does not affect CRE, F-κB, or TGF-β”, the “solubility in water-based solutions” value [12] was “poor solubility in water-based solutions” and the aqueous solubility ([12]; water) was < 1 µg/mL. The “cartilage regeneration and healing” value ([13]; 2 mm biopsy punch wound in cartilaginous region of C57B1/CJ mouse) was “increased cartilage regeneration and healing”, the “wound closure rate and fibrosis” value ([13]; topical, mouse ear punch) was “significantly increased rate of wound closure with reduced fibrosis (scarring)” and the “quality of wound healing” value [14] was “substantial improvement to the quality of wound healing”.
